Assay results as given in patent US20250296929A1, “NOVEL HEPATOSELECTIVE POLYADENYLATING POLYMERASES INHIBITORS AND THEIR METHOD OF USE” (BARUCH S. BLUMBERG INSTITUTE, priority 2021, published 2025).

How the values were obtained:
[1] = molecular target: T1, OATP1B3 (Homo sapiens, UniProt Q9NPD5); experiment: OATP1B3 transporter substrate uptake in OATP1B3-HEK293 cells; type: in vitro ADME; conditions: test concentration 1 μM
T1 construct: expressed in transfected cells; host or cells: HEK293
T1 sequence (Q9NPD5 1-702): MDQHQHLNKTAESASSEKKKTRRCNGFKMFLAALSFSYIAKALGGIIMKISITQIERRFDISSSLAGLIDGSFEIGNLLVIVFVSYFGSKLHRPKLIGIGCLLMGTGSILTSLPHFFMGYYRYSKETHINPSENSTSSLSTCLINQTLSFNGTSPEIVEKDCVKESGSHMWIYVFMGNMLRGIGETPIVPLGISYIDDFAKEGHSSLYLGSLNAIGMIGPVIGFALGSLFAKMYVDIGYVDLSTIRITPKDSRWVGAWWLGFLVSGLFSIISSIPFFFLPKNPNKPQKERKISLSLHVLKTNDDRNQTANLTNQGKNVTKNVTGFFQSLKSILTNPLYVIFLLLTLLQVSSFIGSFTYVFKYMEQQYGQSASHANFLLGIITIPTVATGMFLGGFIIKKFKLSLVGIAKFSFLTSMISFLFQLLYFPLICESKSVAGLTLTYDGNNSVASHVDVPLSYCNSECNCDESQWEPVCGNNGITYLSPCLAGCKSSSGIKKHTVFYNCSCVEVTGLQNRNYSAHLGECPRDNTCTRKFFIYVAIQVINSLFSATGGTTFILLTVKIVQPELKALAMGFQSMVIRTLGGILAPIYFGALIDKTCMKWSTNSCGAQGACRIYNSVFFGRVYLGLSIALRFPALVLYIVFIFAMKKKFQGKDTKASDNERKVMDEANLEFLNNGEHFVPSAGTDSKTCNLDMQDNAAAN
Description: Protocol for identification of compounds that are substrates of transporters OATP1B1 and OATP1B3. Transfected HTEK293 and vector control HTEK293 cells were cultured in 24-well poly-D-lysine or collagen-coated tissue culture plates ([…]) for 2 and 10 minutes respectively in transport buffer (HIBSSg, pH 7.4, pre-warmed to 37° C.). At a defined time point, the uptake experiments were stopped by removing dosing solution followed by two washes of ice-cold HIBSSg buffer. The cells were lysed for 2 minutes with […] containing an appropriate internal standard (when available). Lysis buffer were chilled to −20° C., and the plate was kept on ice during lysis. The cell lysate was transferred into a 96-well plate for sample analysis with LC-MS/MS analysis to determine concentration of test compound in cell lysate. The uptake of test compounds was normalized by total cell protein using the BCA Protein Assay Kit following the manufacturer's protocol. The inhibitor Rifamycin SV was used to block OATP1B1 and OATP1B3 transporter activity in order to determine uptake ratios.

[2] = molecular target: T2, OATP1B1 (Homo sapiens, UniProt Q9Y6L6); experiment: OATP1B1 transporter substrate uptake in OATP1B1-HEK293 cells; type: in vitro ADME; conditions: test concentration 1 μM
T2 construct: expressed in transfected cells; host or cells: HEK293
T2 sequence (Q9Y6L6 1-691): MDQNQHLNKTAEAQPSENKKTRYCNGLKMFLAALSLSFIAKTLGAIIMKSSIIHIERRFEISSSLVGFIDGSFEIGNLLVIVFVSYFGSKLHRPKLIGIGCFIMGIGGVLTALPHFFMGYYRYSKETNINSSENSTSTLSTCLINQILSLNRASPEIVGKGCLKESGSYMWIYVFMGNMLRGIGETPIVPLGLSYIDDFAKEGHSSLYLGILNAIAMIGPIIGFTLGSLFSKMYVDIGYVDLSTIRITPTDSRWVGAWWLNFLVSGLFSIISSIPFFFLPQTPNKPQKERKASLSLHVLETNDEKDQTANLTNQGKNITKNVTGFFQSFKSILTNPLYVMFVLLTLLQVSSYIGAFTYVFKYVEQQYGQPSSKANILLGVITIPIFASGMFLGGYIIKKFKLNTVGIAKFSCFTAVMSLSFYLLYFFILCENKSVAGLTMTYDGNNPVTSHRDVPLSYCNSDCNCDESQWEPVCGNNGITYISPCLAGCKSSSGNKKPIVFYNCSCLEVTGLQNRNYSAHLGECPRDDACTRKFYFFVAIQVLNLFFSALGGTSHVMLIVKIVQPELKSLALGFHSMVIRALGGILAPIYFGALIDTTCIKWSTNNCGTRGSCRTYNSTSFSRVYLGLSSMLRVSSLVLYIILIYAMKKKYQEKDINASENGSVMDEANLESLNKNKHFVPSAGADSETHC

COc1cc2c(cc1OCCCCCCC(=O)O)C[C@@H](C(C)C)n1cc(C(=O)O)c(=O)cc1-2 [Example 6, (S)-9-((6-carboxyhexyl)oxy)-6-isopropyl-10-methoxy-2-oxo-6,7-dihydro-2H-pyrido[2,1-a]isoquinoline-3-carboxylic acid]
Uptake Ratio (−/+Inhibitor) ([1]; OATP1B3-HEK293 cells, inhibitor Rifamycin SV): 11.57 | Uptake Ratio (Transporter(−Inhibitor)/Mock(−Inhibitor)) ([1]; OATP1B3-HEK293 vs Mock): 24.80 | Uptake Ratio (−/+Inhibitor) ([2]; OATP1B1-HEK293 cells, inhibitor Rifamycin SV): 11.17 | Uptake Ratio (Transporter(−Inhibitor)/Mock(−Inhibitor)) ([2]; OATP1B1-HEK293 vs Mock (normal HEK293)): 18.99
